Measurements published in patent US20110002953A1, “USE OF IMMIDAZOQUINOLINAMINES AS ADJUVANTS IN DNA VACCINATION” (priority 2000, published 2011).

Key:
[1] = test system: IFN-γ-producing (Th1) cells; assay: IFN-γ ELISPOT on lymph node cells after pVAC1.OVA vaccination, adoptive transfer model; type: in vivo, Balb/c mice; settings: for IFN-γ producing cells, in words: pVAC1.OVA + adjuvant versus plasmid without adjuvant
Procedure: (§1) Splenocytes were prepared as in example 1 above.
(§2) Th CD4+ subsets were assessed using the adoptive transfer model (example 2, above). IFN-γ-producing (Th1) and IL-4-producing (Th2) cells were assayed by ELISPOT (example 1, above). […] No cytokine producing cells were detected in empty vector immunised controls.
(§3) Cartridges were prepared using the pVAC1.OVA plasmid, immunisations and T cell responses were as described in example 2.

[2] = test system: IL-4-producing (Th2) cells; assay: IL-4 ELISPOT on lymph node cells after pVAC1.OVA vaccination, adoptive transfer model; type: in vivo, Balb/c mice; settings: for IL-4 producing cells, in words: pVAC1.OVA + adjuvant versus plasmid without adjuvant
Procedure: as §1, §2, §3

[3] = test system: cytotoxic T cell response; assay: CD8+ T cell-restricted IFN-γ ELISPOT of splenocytes after particle mediated vaccination with pVAC1.PR (influenza nucleoprotein plasmid); type: in vivo, C57B1/6 mice
Procedure: The cytotoxic T cell response was assessed by CD8+ T cell-restricted IFN-γ ELISPOT assay of splenocytes collected one week later. Mice were killed by cervical dislocation and spleens were collected into ice-cold PBS. Splenocytes were teased out into phosphate buffered saline (PBS) followed by lysis of red blood cells (1 minute in buffer consisting of 155 mM NH4Cl, 10 mM KHCO3, 0.1 mM EDTA). After two washes in PBS to remove particulate matter the single cell suspension was aliquoted into ELISPOT plates previously coated with capture IFN-γ antibody and stimulated with CD8-restricted cognate peptide. After overnight culture, IFN-γ producing cells were visualised by application of anti-murine IFN-γ-biotin labelled antibody (Pharmingen) followed by streptavidin—conjugated alkaline phosphatase and quantitated using image analysis.

[4] = test system: cytotoxic T cells (HIV antigens Gag and Nef); assay: IFN-γ ELISPOT of splenocytes with CD8-restricted Gag and Nef peptides after prime/boost vaccination with WRG7077.Gag/Nef; type: in vivo, Balb/c mice
Procedure: Here mice received a primary immunisation followed by a boost immunisation 42 days later.
IFN-γ ELISPOT assays were performed as described (example 1), using CD8-restricted cognate peptides for the Gag and Nef antigens to stimulate splenocytes collected 5 days after the boost immunisation.
Cartridges were prepared using the WRG7077Gag/Nef plasmid, PMID immunisations and T cell responses were as described in example 5. […] Spleens were collected for analysis 6 and 11 days after the boost immunisation.

EG7-OVA cells = assay: Tumour challenge with EG7-OVA cells after immunisation with pVAC1.OVA; type: in vivo, mice
[5] = imiquimod 100 mg/kg s.c. at boost only, splenocytes 5 days after boost, versus plasmid with vehicle

For `CC(C)(O)Cn1cnc2c(N)nc3ccccc3c21` [1-(2-hydroxy-2-methylpropyl)-1H-imidazo[4,5-c]quinolin-4-amine], the “IFN-γ producing cells, in words” value [1] was “increased” and the “IL-4 producing cells, in words” value [2] was “increased”.

`Cc1nc2c(N)nc3ccccc3c2n1CC(C)(C)O` [1-(2-hydroxy-2-methylpropyl)-2-methyl-1H-imidazo[4,5-c]quinolin-4-amine] was tested, and the “IFN-γ producing cells, in words” value [1] was “increased”, the “IL-4 producing cells, in words” value [2] was “increased” and the “increase in IL-4 producing CD4 T cells” value ([2]; single dose 30 mg/kg, 5 days after immunisation) was “Two”.

In the case of `CCOCc1nc2c(N)nc3ccccc3c2n1CC(C)(C)O` [Resiquimod, 1-(2-hydroxy-2-methylpropyl)-2-ethoxymethyl-1-H-imidazo[4,5-c]quinolin-4-amine], the “increase of IFN-γ producing CD4 T cells” value ([1]; 1 mg/kg (apparently optimal dose), lymph node cells 5 days after immunisation) is reported as “six”, the “IFN-γ producing cells, in words” value [1] is reported as “increased” and the “effect on IL-4 producing CD4 T cells” value ([2]; 1 mg/kg, lymph node cells 5 days after immunisation) is reported as “only a modest effect”. The “IL-4 producing cells, in words” value [2] was “increased”.

In the case of `CC(C)Cn1cnc2c(N)nc3ccccc3c21` [imiquimod, 1-(2-methylpropyl)-1H-imidazo[4,5-c]quinolin-4-amine], the “cytotoxic T cells, control plasmid (pVAC1) + imiquimod versus vehicle” value ([3]; empty vector pVAC1, imiquimod 30 mg/kg s.c.) is reported as “No difference”, the “number of cytotoxic T cells in the spleens, pVAC1.PR + imiquimod versus pVAC1.PR + vehicle” value ([3]; imiquimod 30 mg/kg single s.c. injection at immunisation site, splenocytes one week later) is reported as 3 times and the “cytotoxic T-cell response following vaccination with pVAC1.PR (FIG. 1)” value ([3]; in words) is reported as “increases”. For the same molecule, the “IFN-γ producing cells, in words” value [1] was “increased”, the “Th1/Th2 bias: increase of IFN-γ versus IL-4 producing cells” value ([1]; pVAC1.OVA + imiquimod, ELISPOT) was “more substantial for IFN-γ compared with IL-4” and the “IL-4 producing cells, in words” value [2] was “increased”. For the same molecule, the “increase in cytotoxic T cells, imiquimod s.c. injection” value ([4]; 30 mg/kg s.c., 11 days after boost, versus plasmid with s.c. vehicle) was “approximately 2 fold”, the “increase in cytotoxic T cells, imiquimod topically” value ([4]; 20 μl of 5% (w/v) cream (Aldara) at PMID site, 11 days after boost, versus plasmid with s.c. vehicle) was “approximately 2 fold” and the “increase in cytotoxic T cells, Gag” value [4, 5] was 10 fold. The “increase in cytotoxic T cells, Nef” value [4, 5] was 100 fold, the “cytotoxic T-cell response following vaccination with WRG7077.Gag/Nef (FIG. 5)” value ([4]; in words) was “increases” and the “cytotoxic T-cell response, topical application (FIG. 8)” value ([4]; in words) was “increases”. The “growth of tumours (FIG. 9)” value (EG7-OVA cells; in words) was “delays”, the “tumourigenicity of EG7.OVA tumour cells (FIG. 10)” value (EG7-OVA cells; in words) was “reduces” and the tumourigenicity (EG7-OVA cells; mice immunised with pVAC1.OVA + imiquimod 30 mg/kg s.c., 100,000 cells/mouse two weeks after boost) was 25%. For the same molecule, the “appearance of palpable tumours” value (EG7-OVA cells; pVAC1.OVA + imiquimod 30 mg/kg s.c. compared with pVAC1.OVA alone) was “most delayed”.
